From patent US9872875B2, “Component and method for treating viral disease” (Institut Pasteur of Shanghai, Chinese Academy of Sciences, priority 2012, dated 2018)
Where a name gives a salt, the structure may show the parent alone. Read-outs that look alike come from different tables or passages of the source. Ends that are not written are not given here.

Tests used:
[1] = tested on: EV71; experiment: Effects of other antagonists and agonists on EV71 (Table 9); format: cell-based, Enterovirus 71; set-up: key: “NO” indicates there is negative
[2] = biological target: T1, P2X7 receptor (Homo sapiens, UniProt Q99572); settings: cited from earlier work
T1 sequence (Q99572 1-595): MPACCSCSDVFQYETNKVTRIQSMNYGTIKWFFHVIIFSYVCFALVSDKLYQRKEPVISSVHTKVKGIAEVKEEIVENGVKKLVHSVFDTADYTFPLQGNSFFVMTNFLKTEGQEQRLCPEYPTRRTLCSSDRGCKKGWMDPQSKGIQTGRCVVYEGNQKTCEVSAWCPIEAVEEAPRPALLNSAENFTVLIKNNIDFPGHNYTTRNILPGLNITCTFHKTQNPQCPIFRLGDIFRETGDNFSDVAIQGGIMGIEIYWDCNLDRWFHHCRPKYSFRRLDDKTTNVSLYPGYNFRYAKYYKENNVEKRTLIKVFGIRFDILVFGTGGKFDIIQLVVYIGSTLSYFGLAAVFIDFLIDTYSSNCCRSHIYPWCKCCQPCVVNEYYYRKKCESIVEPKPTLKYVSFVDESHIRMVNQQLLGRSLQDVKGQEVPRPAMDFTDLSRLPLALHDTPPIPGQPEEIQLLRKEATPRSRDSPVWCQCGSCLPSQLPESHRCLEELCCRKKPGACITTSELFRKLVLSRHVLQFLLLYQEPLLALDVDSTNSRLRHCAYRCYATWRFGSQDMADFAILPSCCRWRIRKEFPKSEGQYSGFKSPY

[3] = biological target: T2, P2X2 receptor (Homo sapiens, UniProt Q9UBL9); settings: cited from earlier work
T2 sequence (Q9UBL9 1-471): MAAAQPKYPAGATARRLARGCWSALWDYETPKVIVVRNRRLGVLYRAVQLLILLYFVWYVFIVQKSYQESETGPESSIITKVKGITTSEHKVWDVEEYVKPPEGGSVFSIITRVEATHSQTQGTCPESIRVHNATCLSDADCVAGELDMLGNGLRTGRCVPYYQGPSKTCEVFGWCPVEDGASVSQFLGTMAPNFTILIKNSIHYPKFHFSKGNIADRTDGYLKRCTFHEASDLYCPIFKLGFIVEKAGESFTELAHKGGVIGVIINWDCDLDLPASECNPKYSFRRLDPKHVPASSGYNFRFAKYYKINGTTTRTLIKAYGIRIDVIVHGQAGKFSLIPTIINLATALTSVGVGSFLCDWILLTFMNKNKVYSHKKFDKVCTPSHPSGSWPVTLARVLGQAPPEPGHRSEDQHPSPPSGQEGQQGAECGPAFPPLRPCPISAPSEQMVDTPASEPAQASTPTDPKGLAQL

[4] = biological target: T3, P2X1 receptor (Homo sapiens, UniProt P51575); settings: cited from earlier work
T3 sequence (P51575 1-399): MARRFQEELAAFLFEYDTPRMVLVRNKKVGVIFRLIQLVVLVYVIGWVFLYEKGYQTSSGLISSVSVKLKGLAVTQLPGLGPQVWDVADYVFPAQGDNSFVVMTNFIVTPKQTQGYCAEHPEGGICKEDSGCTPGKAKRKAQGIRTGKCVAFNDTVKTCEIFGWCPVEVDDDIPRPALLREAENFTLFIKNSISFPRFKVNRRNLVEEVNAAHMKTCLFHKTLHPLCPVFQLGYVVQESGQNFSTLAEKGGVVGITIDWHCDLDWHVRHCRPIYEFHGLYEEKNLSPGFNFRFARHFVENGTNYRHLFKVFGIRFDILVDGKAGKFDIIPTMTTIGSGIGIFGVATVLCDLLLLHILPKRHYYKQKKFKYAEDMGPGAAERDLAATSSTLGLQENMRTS

[5] = tested on: EV71; experiment: Inhibition of EV71 replication in RD cells at 0.1, 1, 10 and 100 μM (CPE, crystal violet); format: cell-based, Enterovirus 71; settings: for Inhibition of EV71 replication: Table 8, antagonists
Experimental: Inhibitory effect of each P2X receptor antagonists and agonists on EV71 replication was measured at 0.1, 1, 10, and 100 μM. Specific procedures refer to “1” of Example 1. after infection, however, cells need to be incubated for 3˜4 days, stained with crystal violet, and observed under optical microscope to determine whether or not CPE (cytopathic effect) was present. In addition, the effect of compounds at each concentration on cytotoxicity to RD cells was determined. After culturing RD cells in various concentrations of compounds for 3˜4 days, stained with crystal violet, and observed under optical microscope to observe whether or not cell layer was damaged. Compounds capable of protecting cells from infection without damage of healthy cell layer can inhibit EV71 replication in RD cells.

[6] = biological target: T4, P2X3 receptor (Homo sapiens, UniProt P56373); settings: cited from earlier work
T4 sequence (P56373 1-397): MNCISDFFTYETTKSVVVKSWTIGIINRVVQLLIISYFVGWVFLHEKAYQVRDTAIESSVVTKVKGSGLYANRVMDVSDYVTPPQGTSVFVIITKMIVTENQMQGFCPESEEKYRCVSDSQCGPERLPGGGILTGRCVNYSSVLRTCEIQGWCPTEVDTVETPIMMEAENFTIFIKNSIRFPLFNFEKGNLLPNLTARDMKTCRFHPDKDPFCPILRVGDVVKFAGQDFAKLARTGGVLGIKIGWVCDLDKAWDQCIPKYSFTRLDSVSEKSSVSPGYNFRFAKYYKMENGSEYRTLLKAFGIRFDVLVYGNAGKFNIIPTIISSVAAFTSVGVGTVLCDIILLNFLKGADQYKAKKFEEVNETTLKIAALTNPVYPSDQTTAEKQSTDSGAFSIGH

| Compound | EV71 Log10 reduction [1] | P2X receptors 7 ([2]; Table 9, antagonists) | further results |
| --- | --- | --- | --- |
| Nc1ncnc2c1ncn2[C@@H]1O[C@H](COP(=O)(O)O)C(O)C1OP(=O)(O)O (stereo partly drawn) [2′,5′-ADP] | NO | – | – |
| O=C1CN=C(c2cccc(Br)c2)c2oc3ccccc3c2N1 [5-BDBD] | NO | – | – |
| Clc1cccc(-c2nnnn2Cc2cccnc2)c1Cl [A 438079] | NO | ✓ ✓ (✓ ✓ activating concentration 10 nM-300 nM) | – |
| COc1ccc(CC(=O)NC(N=C(NC#N)Nc2cccc3ncccc23)C(C)(C)C)cc1OC (stereo not drawn) [A 740003] | NO | ✓ ✓ (✓ ✓ activating concentration 10 nM-300 nM) | – |
| Clc1cccc(-n2nnnc2NCc2ccccc2Oc2ccccn2)c1Cl [A 839977] | NO | ✓ ✓ (✓ ✓ activating concentration 10 nM-300 nM) | – |
| O=C(O)c1cc(C(=O)O)c(C(=O)N(Cc2cccc(Oc3ccccc3)c2)[C@H]2CCCc3ccccc32)cc1C(=O)O [A-317491] | NO | – | – |
| COc1cc(C(C)C)c(Oc2cnc(N)nc2N)cc1I [AF353] | NO | – | – |
| O=C(CC12CC3CC(CC(C3)C1)C2)Nc1cccc2nc(NCCNCCO)ccc12 [AZ 10606120] | NO | – | – |
| O=C1CSC(=O)N1C(CCc1ccncc1)COc1ccc(-c2cccc([N+](=O)[O-])c2)cc1 (stereo not drawn) [AZ 11645373] | NO | ✓ ✓ (✓ ✓ activating concentration 10 nM-300 nM) | – |
| CCOc1ccc(Nc2ccc(/C(=C3C=C/C(=[N+](/CC)Cc4cccc(S(=O)(=O)[O-])c4)C=C/3C)c3ccc(N(CC)Cc4cccc(S(=O)(=O)[O-])c4)cc3C)cc2)cc1.[Na+] [BBG] | NO | ✓ ✓ ✓ (✓ ✓ ✓ activating concentration <10 nM) | P2X receptors 2 ([3]; Table 9, antagonists): ✓ (✓ activating concentration >300 nM); P2X receptors 1 ([4]; Table 9, antagonists): ✓ (✓ activating concentration >300 nM) |
| Cc1cc(-c2ccc(N=Nc3ccc4c(S(=O)(=O)[O-])cc(S(=O)(=O)[O-])c(N)c4c3O)c(C)c2)ccc1N=Nc1ccc2c(S(=O)(=O)[O-])cc(S(=O)(=O)[O-])c(N)c2c1O.[Na+].[Na+].[Na+].[Na+] [Evans Blue] | – | – | inhibition of EV71 replication (statement in words) [5]: can also inhibit EV71 replication |
| Cc1ccc(CN2CCNCC2)cc1NC(=O)CNc1ccc(F)c(F)c1 [GW 791343] | NO | – | P2X receptors 7 ([2]; Table 9, modulator, no key printed for this class): ✓ ✓ |
| CN([C@@H](Cc1ccc(OS(=O)(=O)c2cccc3cnccc23)cc1)C(=O)N1CCN(c2ccccc2)CC1)S(=O)(=O)c1cccc2cnccc12 [KN-62] | NO | ✓ ✓ (✓ ✓ activating concentration 10 nM-300 nM) | – |
| Cc1nc(N=Nc2ccc(C(=O)O)cc2)c(COP(=O)(O)O)c(C=O)c1O [MRS 2159] | NO | – | P2X receptors 1 ([4]; Table 9, antagonists): ✓ ✓ (✓ ✓ activating concentration 10 nM-300 nM) |
| O=C(Nc1cccc(C(=O)Nc2ccc(S(=O)(=O)O)c3cc(S(=O)(=O)O)cc(S(=O)(=O)O)c23)c1)Nc1cccc(C(=O)Nc2ccc(S(=O)(=O)O)c3cc(S(=O)(=O)O)cc(S(=O)(=O)O)c23)c1 [NF023, 8,8′-[carbonylbis(imino-3,1-phenylenecarbonylimino)]bis-1,3,5-naphthalene-trisulphonic acid, hexasodium salt] | – | – | inhibition of EV71 replication (statement in words) [5]: can also inhibit EV71 replication; Inhibition of EV71 replication [5]: + (+: inhibitory concentration >300 nM); P2X receptors 2 ([3]; Table 8, antagonists): + (+: inhibitory concentration >300 nM); P2X receptors 3 ([6]; Table 8, antagonists): + (+: inhibitory concentration >300 nM); P2X receptors 1 [4]: ++ (key: −: no activity; +: inhibitory concentration >300 nM; ++: inhibitory concentration = 10~300 nM; +++: inhibitory concentration <10 nM) |
| O=C(Nc1cccc(C(=O)Nc2cc(C(=O)Nc3ccc(S(=O)(=O)O)c4cc(S(=O)(=O)O)cc(S(=O)(=O)O)c34)ccc2F)c1)Nc1cccc(C(=O)Nc2cc(C(=O)Nc3ccc(S(=O)(=O)O)c4cc(S(=O)(=O)O)cc(S(=O)(=O)O)c34)ccc2F)c1 [NF157, 8,8′-[Carbonylbis[imino-3,1-phenylenecarbonylimino(4-fluoro-3,1-phenylene)carbonylimino]]] | – | – | inhibition of EV71 replication (statement in words) [5]: can also inhibit EV71 replication |
| O=C(Nc1cc(C(=O)Nc2ccc(S(=O)(=O)[O-])cc2)cc(C(=O)Nc2ccc(S(=O)(=O)[O-])cc2)c1)Nc1cc(C(=O)Nc2ccc(S(=O)(=O)[O-])cc2)cc(C(=O)Nc2ccc(S(=O)(=O)[O-])cc2)c1.[Na+].[Na+].[Na+].[Na+] [NF 110] | NO | – | P2X receptors 2 ([3]; Table 9, antagonists): ✓ (✓ activating concentration >300 nM); P2X receptors 3 ([6]; Table 9, antagonists): ✓ ✓ (✓ ✓ activating concentration 10 nM-300 nM); P2X receptors 1 ([4]; Table 9, antagonists): ✓ ✓ (✓ ✓ activating concentration 10 nM-300 nM) |
| Cc1nc(N=Nc2cc(S(=O)(=O)[O-])c3cc([N+](=O)[O-])cc(S(=O)(=O)[O-])c3c2)c(COP(=O)([O-])[O-])c(C=O)c1O.[Na+].[Na+].[Na+].[Na+] [PPNDS, Pyridoxal-5′-phosphate-6-(2′-naphthylazo-6′-nitro-4′,8′-disulfonate) tetrasodium salt] | – | – | inhibition of EV71 replication (statement in words) [5]: can also inhibit EV71 replication; Inhibition of EV71 replication [5]: ++ (++: inhibitory concentration = 10~300 nM); P2X receptors 1 ([4]; Table 8, antagonists): ++ (++: inhibitory concentration = 10~300 nM) |
| O=C(N[C@H](Cc1cscn1)C(=O)N[C@@H](CC1CCCCC1)[C@@H](O)[C@@H](O)C1CC1)c1nc2ccccc2[nH]1 [Ro 0437626] | NO | – | P2X receptors 1 ([4]; Table 9, antagonists): ✓ (✓ activating concentration >300 nM) |
| Cc1nc(N=Nc2cc(S(=O)(=O)O)ccc2S(=O)(=O)O)c(COP(=O)(O)O)c(C=O)c1O [iso-PPADS, pyridoxal-phosphate-6-azophenyl-2′,5′-disulphonic acid] | – | – | inhibition of EV71 replication (statement in words) [5]: can also inhibit EV71 replication; Inhibition of EV71 replication [5]: + (+: inhibitory concentration >300 nM); P2X receptors 2 ([3]; Table 8, antagonists): ++ (++: inhibitory concentration = 10~300 nM); P2X receptors 3 ([6]; Table 8, antagonists): ++ (++: inhibitory concentration = 10~300 nM); P2X receptors 1 ([4]; Table 8, antagonists): ++ (++: inhibitory concentration = 10~300 nM) |
| Nc1ncnc2c1ncn2[C@@H](C=O)O[C@@H](C=O)COP(=O)(O)OP(=O)(O)OP(=O)(O)O [oATP] | NO | ✓ ✓ (✓ ✓ activating concentration 10 nM-300 nM) | – |
| LVVYPWT [Spinorphin] | NO | – | P2X receptors 3 ([6]; Table 9, antagonists): ✓ ✓ ✓ (✓ ✓ ✓ activating concentration <10 nM) |
